How the values were obtained:
[1] = tested on: PQ-treated Neuro-2a cells; assay: Propidium iodide straining of PQ-treated Neuro-2a cells (membrane permeability); assay type: cell-based, mouse; conditions: compound 10 μM pre-incubation, PQ-treated cells, 24 h
Procedure: The cells (1 × 10^4 cells/well) were seeded in black 96-well plates before testing. After incubation of the cells with compounds and PQ during 24 h, PI solution (10 μg/mL) was added to each well and the plate was incubated in the dark at 37 °C for 10 min. Cells were washed with phosphate buffer saline (PBS) (BioloT, St.Peterburg, Russia) and fluorescence was measured with a Fluoroskan Ascent plate reader (Thermo Labsystems, Helsinki, Finland) at […]. All manipulations with fluorescent probes were carried out in a darkened room. The results were presented as percent of positive control data.

[2] = tested on: PQ-treated Neuro-2a cells; assay: PQ-treated Neuro-2a cell viability (FDA assay); assay type: cell-based, mouse; conditions: compound 1 and 10 µM, PQ 500 µM, 24 h
Procedure: A stock solution of the fluorescein diacetate (FDA) (Sigma-Aldrich, St. Louis, MO, USA) in DMSO (1 mg/mL) was prepared. The cells (1 × 10^4 cells/well) were seeded in black 96-well plates before testing. After incubation of the cells with compounds and PQ during 24 h, FDA solution (50 μg/mL) was added to each well and the plate was incubated in the dark at 37 °C for 15 min. Cells were washed with phosphate buffer saline (PBS) (BioloT, S.-Peterburg, Russia) and fluorescence was measured with a Fluoroskan Ascent plate reader (Thermo Labsystems, Helsinki, Finland) at λex = 485 nm and λem = 518 nm. All manipulations with fluorescent probes were carried out in a darkened room. Cell viability was expressed as the percent of control.
(§1) The cells (1 × 10^4 cells/well of a 96-well plate) were treated with studied compounds at concentrations of 1 and 10 µM for 1 h and then 500 µM of PQ (Sigma-Aldrich, St. Louis, MO, USA) was added to the neuroblastoma cells. Cells incubated without PQ and compounds and with PQ alone were used as positive and negative controls, respectively. The viability of cells was measured after 24 h using MTT and FDA methods. The results were presented as percent of positive control data.

[3] = tested on: Hsp70 level in Neuro-2a cells; assay: Hsp70 level analysis by Western blot in Neuro-2a cells; assay type: cell-based, mouse; conditions: compound 10 µM 1 h, then PQ 500 µM 24 h
Procedure: The Hsp70 expression was detected by Western blot analysis. Cell suspensions (1.6 × 10^5 cells/well of a 6-well plate) were seeded and treated with studied compounds at a concentration of 10 µM for 1 h. After that, PQ (500 µM) was added and cells were incubated during 24 h. Cells incubated without PQ and compounds and with PQ alone were used as positive and negative controls, respectively. Cells were washed by cold PBS (BioloT, Russia) twice and lysed by radioimmunoprecipitation assay (RIPA) buffer (BioloT, St. Peterburg, Russia). The amount of proteins was measured by the Bradford method and equal samples (25 µg) were prepared using sample buffer. Proteins were separated with sodium dodecyl sulphate (SDS) electrophoresis in 10% polyacrylamide gel. The electrophoretically separated proteins were transferred onto the polyvinylidene difluoride (PVDF) membrane Whatman (Sigma-Aldrich, St. Louis, MO, USA) using a semi-dry transfer apparatus (Helicon, Moscow, Russia). […] The peroxidase reaction was visualized by an enhanced chemiluminescence (ECL) kit according to the instructions of the manufacturer (Sigma-Aldrich, St. Louis, MO, USA) using the VersaDoc Imaging System (Bio-Rad, Hercules, CA, USA).

[4] = DPPH radical scavenging assay (cell-free); conditions: 30 min, MeOH
Procedure: The 2,2-diphenyl-1-picryl-hydrazyl-hydrate (DPPH) radical scavenging activity was tested as described previously. The compounds were dissolved in MeOH, and the solutions (120 µL) were dispensed into wells of a 96-well microplate. The DPPH (Sigma-Aldrich, Steinheim, Germany) was dissolved in MeOH at a concentration of 7.5 × 10^−3 M and the solution (30 µL) was added to each well. The concentrations of tested compounds in the mixtures were 10 and 100 µM. Ascorbic acid was used as a positive control. The mixtures were shaken and left for 30 min. The absorbance of the resulting solutions was measured at λ = 520 nm with a MultiscanFC plate reader (Thermo Scientific, Waltham, MA, USA). The concentration scavenging 50% of the DPPH radical (EC50) was calculated for each compound.

[5] = tested on: PQ-treated Neuro-2a cells; assay: PQ-treated Neuro-2a cell viability (MTT assay); assay type: cell-based, mouse; conditions: compound 1 and 10 µM, PQ 500 µM, 24 h
Procedure: The cells (1 × 10^4 cells/well of a 96-well plate) were incubated with different concentrations of studied compounds during 24 h. After that, cell viability was determined by the MTT (3-(4,5-dimethylthiazol-2-yl)-2,5-diphenyltetrazolium bromide) method according to the manufacturer’s instructions (Sigma-Aldrich, St. Louis, MO, USA). Absorbance of the converted formazan was measured using a Multiskan FC microplate photometer (Thermo Scientific, Waltham, MA, USA) at λ = 570 nm. The results were presented as percent of control data, and concentration of cell viability inhibition on 50% (IC50) was calculated.
as §1

[6] = tested on: histamine release induced by anti-IgE; conditions: cited from earlier work
[7] = tested on: PQ-treated Neuro-2a cells; assay: Neurite outgrowth estimation in PQ-treated Neuro-2a cells; assay type: cell-based, mouse; conditions: compound 10 µM 1 h, then PQ 500 µM 24 h
Procedure: Neurite outgrowth was studied as described by Li et al.. Neuro-2a cells were seeded in 6-well plates (1.6 × 10^5 cells/well) in DMEM medium containing 10% fetal bovine serum (Biolot, St. Peterburg, Russia) and 1% penicillin/streptomycin (Invitrogen, Carlsbad, CA, USA). The next day, this growth media was changed with serum-free DMEM media containing 1% penicillin/streptomycin, and cells were treated with studied compounds at a concentration of 10 µM for 1 h. After that, PQ (500 µM) was added and cells were incubated during 24 h. Cells incubated without PQ and compounds and with PQ alone were used as positive and negative controls, respectively.
For each well, approximately 10 images were acquired randomly by scanning the wells from left to right and top to bottom using the AxioImager A1 microscope (CarlZeiss, Oberkochen, Germany). A total of ten random fields (near 350 cells in each) for each experimental group were scored for neurite outgrowth. The number of neurite-bearing cells and lengths of the individual neurites for each cell were measured using the AxioVision 4.7.1 software (CarlZeiss, Oberkochen, Germany). Length was defined as the straight-line distance from the tip of the neurite to the junction between the cell body and neurite base. In the case of branched neurites, the length of the longest branch was measured from the tip of the neurite to the cell body. In each experimental group, the average length of neurites was calculated, as well as the average number of neurites per one cell.

## CC(C)=CCC[C@@H](C)[C@H]1CC[C@@]2(C(=O)O)C3=C(CC[C@]12C)[C@@]1(C)CCC(=O)C(C)(C)[C@@H]1CC3 [Compound 4, penasterone]
[1]
  decrease of fluorescence of PI-straining cells: 17%
[2]
  effect on PQ-treated cell viability (FDA assay): did not show any effect
[3]
  increase of Hsp70 level in PQ-treated cells: 56%
[4]
  EC50: > 100 µM
[5]
  effect on PQ-treated cell viability (MTT assay): did not show any effect
[6]
  inhibition of histamine release induced by anti-IgE: inhibitors of histamine release
[7]
  increase in the average number of neurites per cell: 27%
  increase of neurites-bearing cell amount compared to PQ-treated control: 134%

Reference: PMC7698842, “Lanostane Triterpenoid Metabolites from a Penares sp. Marine Sponge Protect Neuro-2a Cells against Paraquat Neurotoxicity” (Molecules, 2020)
